Experimental data: patent US10780090B2, “Heteroaryl compounds useful as inhibitors of SUMO activating enzyme” (Millennium Pharmaceuticals, Inc., priority 2014, dated 2020)

Target: recombinant human SAE enzyme (Homo sapiens (Human), UniProt Q9UBT2)
Assay: SAE HTRF enzyme assay
Type: biochemical
Conditions: for Percent Inhibition: Concentration 0.111 μM; for IC50: class symbols A/B/C
How it was run: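 HTRF read-out using Eu-cryptate anti-Flag and allophycocyanin anti-GST antibodies, added with EDTA stop buffer and read after 2 h at 24 °C. The preceding reaction ran 105 min at 24 °C: 0.11 nM recombinant SAE, 0.5 μM ATP, Sumo-Flag, Ubc9-GST, pH 7.5. Values given as single-concentration inhibition or IC50.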

Chain of recombinant human SAE enzyme (Q9UBT2 whole entry): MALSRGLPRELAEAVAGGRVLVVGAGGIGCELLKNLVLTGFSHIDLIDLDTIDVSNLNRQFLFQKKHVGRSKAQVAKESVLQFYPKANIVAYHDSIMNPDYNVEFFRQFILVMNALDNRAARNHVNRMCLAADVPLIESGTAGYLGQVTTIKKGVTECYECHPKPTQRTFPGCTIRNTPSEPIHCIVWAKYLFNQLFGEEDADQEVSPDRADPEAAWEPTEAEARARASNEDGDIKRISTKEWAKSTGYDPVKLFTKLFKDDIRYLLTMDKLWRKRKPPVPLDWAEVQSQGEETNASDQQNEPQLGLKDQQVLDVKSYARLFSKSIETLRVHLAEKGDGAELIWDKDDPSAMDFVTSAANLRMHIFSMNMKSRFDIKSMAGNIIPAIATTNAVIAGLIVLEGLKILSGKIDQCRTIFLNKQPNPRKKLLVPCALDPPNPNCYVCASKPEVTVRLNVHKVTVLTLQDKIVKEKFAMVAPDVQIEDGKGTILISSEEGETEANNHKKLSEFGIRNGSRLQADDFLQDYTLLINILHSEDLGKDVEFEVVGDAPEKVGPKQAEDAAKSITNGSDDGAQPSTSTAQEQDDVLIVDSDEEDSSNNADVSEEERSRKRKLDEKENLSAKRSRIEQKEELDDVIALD
Chain of recombinant human SAE enzyme (Q9UBE0 whole entry partner): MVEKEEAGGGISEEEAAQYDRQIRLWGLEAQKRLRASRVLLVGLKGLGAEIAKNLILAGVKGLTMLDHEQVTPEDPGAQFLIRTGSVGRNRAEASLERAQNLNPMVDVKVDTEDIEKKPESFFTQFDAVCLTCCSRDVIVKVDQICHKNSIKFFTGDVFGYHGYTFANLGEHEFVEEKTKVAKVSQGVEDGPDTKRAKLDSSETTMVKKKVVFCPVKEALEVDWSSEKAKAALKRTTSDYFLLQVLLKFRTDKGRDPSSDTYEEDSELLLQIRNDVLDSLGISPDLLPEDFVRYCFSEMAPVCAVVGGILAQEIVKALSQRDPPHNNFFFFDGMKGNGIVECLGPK

Row | Compound | Percent Inhibition | IC50
1 | CC(O)(c1cccc(Br)c1)c1csc(C(=O)c2cncnc2N[C@@H]2C[C@H](COS(N)(=O)=O)[C@@H](O)C2)c1 (single isomer, unassigned) [I-3b, [(1R,2S,4R)-4-{[5-({4-[(1R)-1-(3-bromophenyl)-1-hydroxyethyl]-2-thienyl}carbonyl)pyrimidin-4-yl]amino}-2-hydroxycyclopentyl]methyl sulfamate or [(1R,2S,4R)-4-{[5-({4-[(1S)-1-(3-bromophenyl)-1-hydroxyethyl]-2-thienyl}carbonyl)pyrimidin-4-yl]amino}-2-hydroxycyclopentyl]methyl sulfamate] | 100 | < 0.01 µM
2 | NS(=O)(=O)OC[C@H]1C[C@@H](Nc2ncncc2C(=O)c2cc([C@H](O)c3cccc(Cl)c3)cs2)C[C@@H]1O (single isomer, unassigned) [I-4a, [(1R,2S,4R)-4-{[5-({4-[(R)-(3-chlorophenyl)(hydroxy)methyl]-2-thienyl}carbonyl)pyrimidin-4-yl]amino}-2-hydroxycyclopentyl]methyl sulfamate or [(1R,2S,4R)-4-{[5-({4-[(S)-(3-chlorophenyl)(hydroxy)methyl]-2-thienyl}carbonyl)pyrimidin-4-yl]amino}-2-hydroxycyclopentyl]methyl sulfamate] | 99 | < 0.01 µM
3 | NS(=O)(=O)OC[C@H]1C[C@@H](Nc2ncncc2C(=O)c2cc([C@H](O)c3cccc(Cl)c3)cs2)C[C@@H]1O (single isomer, unassigned) [I-4b, [(1R,2S,4R)-4-{[5-({4-[(R)-(3-chlorophenyl)(hydroxy)methyl]-2-thienyl}carbonyl)pyrimidin-4-yl]amino}-2-hydroxycyclopentyl]methyl sulfamate or [(1R,2S,4R)-4-{[5-({4-[(S)-(3-chlorophenyl)(hydroxy)methyl]-2-thienyl}carbonyl)pyrimidin-4-yl]amino}-2-hydroxycyclopentyl]methyl sulfamate] | 100 | < 0.01 µM
4 | CC(O)(c1cccc(Cl)c1)c1csc(C(=O)c2cncnc2N[C@@H]2C[C@H](COS(N)(=O)=O)[C@@H](O)C2)c1 (single isomer, unassigned) [I-5a, [(1R,2S,4R)-4-{[5-({4-[(1R)-1-(3-chlorophenyl)-1-hydroxyethyl]-2-thienyl}carbonyl)pyrimidin-4-yl]amino}-2-hydroxycyclopentyl]methyl sulfamate or [(1R,2S,4R)-4-{[5-({4-[(1S)-1-(3-chlorophenyl)-1-hydroxyethyl]-2-thienyl}carbonyl)pyrimidin-4-yl]amino}-2-hydroxycyclopentyl]methyl sulfamate] | 86 | 0.01 to 0.1 µM
5 | CC(O)(c1cccc(Cl)c1)c1csc(C(=O)c2cncnc2N[C@@H]2C[C@H](COS(N)(=O)=O)[C@@H](O)C2)c1 (single isomer, unassigned) [I-5b, [(1R,2S,4R)-4-{[5-({4-[(1R)-1-(3-chlorophenyl)-1-hydroxyethyl]-2-thienyl}carbonyl)pyrimidin-4-yl]amino}-2-hydroxycyclopentyl]methyl sulfamate or [(1R,2S,4R)-4-{[5-({4-[(1S)-1-(3-chlorophenyl)-1-hydroxyethyl]-2-thienyl}carbonyl)pyrimidin-4-yl]amino}-2-hydroxycyclopentyl]methyl sulfamate] | 100 | < 0.01 µM
6 | Cc1sc(C(=O)c2cncnc2N[C@@H]2C[C@H](COS(N)(=O)=O)[C@@H](O)C2)cc1[C@H](N)c1cccc(Cl)c1 (single isomer, unassigned) [I-6a, [(1R,2S,4R)-4-{[5-({4-[(R)-amino(3-chlorophenyl)methyl]-5-methyl-2-thienyl}carbonyl)pyrimidin-4-yl]amino}-2-hydroxycyclopentyl]methyl sulfamate or [(1R,2S,4R)-4-{[5-({4-[(S)-amino(3-chlorophenyl)methyl]-5-methyl-2-thienyl}carbonyl)pyrimidin-4-yl]amino}-2-hydroxycyclopentyl]methyl sulfamate] | 98 | < 0.01 µM
7 | Cc1sc(C(=O)c2cncnc2N[C@@H]2C[C@H](COS(N)(=O)=O)[C@@H](O)C2)cc1[C@H](N)c1cccc(Cl)c1 (single isomer, unassigned) [I-6b, [(1R,2S,4R)-4-{[5-({4-[(R)-amino(3-chlorophenyl)methyl]-5-methyl-2-thienyl}carbonyl)pyrimidin-4-yl]amino}-2-hydroxycyclopentyl]methyl sulfamate or [(1R,2S,4R)-4-{[5-({4-[(S)-amino(3-chlorophenyl)methyl]-5-methyl-2-thienyl}carbonyl)pyrimidin-4-yl]amino}-2-hydroxycyclopentyl]methyl sulfamate] | 98 | < 0.01 µM
8 | COCc1sc(C(=O)c2cncnc2N[C@@H]2C[C@H](COS(N)(=O)=O)[C@@H](O)C2)cc1C(O)c1cccc(Cl)c1 (single isomer, unassigned) [I-7a, [(1R,2S,4R)-4-{[5-({4-[(R)-(3-chlorophenyl)(hydroxy)methyl]-5-(methoxymethyl)-2-thienyl}carbonyl)pyrimidin-4-yl]amino}-2-hydroxycyclopentyl]methyl sulfamate or [(1R,2S,4R)-4-{[5-({4-[(S)-(3-chlorophenyl)(hydroxy)methyl]-5-(methoxymethyl)-2-thienyl}carbonyl)pyrimidin-4-yl]amino}-2-hydroxycyclopentyl]methyl sulfamate] | 96 | < 0.01 µM
9 | COCc1sc(C(=O)c2cncnc2N[C@@H]2C[C@H](COS(N)(=O)=O)[C@@H](O)C2)cc1C(O)c1cccc(Cl)c1 (single isomer, unassigned) [I-7b, [(1R,2S,4R)-4-{[5-({4-[(R)-(3-chlorophenyl)(hydroxy)methyl]-5-(methoxymethyl)-2-thienyl}carbonyl)pyrimidin-4-yl]amino}-2-hydroxycyclopentyl]methyl sulfamate or [(1R,2S,4R)-4-{[5-({4-[(S)-(3-chlorophenyl)(hydroxy)methyl]-5-(methoxymethyl)-2-thienyl}carbonyl)pyrimidin-4-yl]amino}-2-hydroxycyclopentyl]methyl sulfamate] | 98 | < 0.01 µM
10 | CC(N)(c1cccc(Cl)c1)c1csc(C(=O)c2cncnc2N[C@@H]2C[C@H](COS(N)(=O)=O)[C@@H](O)[C@H]2O)c1 (single isomer, unassigned) [I-8a, [(1R,2R,3S,4R)-4-{[5-({4-[(1S)-1-amino-1-(3-chlorophenyl)ethyl]-2-thienyl}carbonyl)pyrimidin-4-yl]amino}-2,3-dihydroxycyclopentyl]methyl sulfamate or [(1R,2R,3S,4R)-4-{[5-({4-[(1R)-1-amino-1-(3-chlorophenyl)ethyl]-2-thienyl}carbonyl)pyrimidin-4-yl]amino}-2,3-dihydroxycyclopentyl]methyl sulfamate] | 96 | < 0.01 µM
11 | CC(N)(c1cccc(Cl)c1)c1csc(C(=O)c2cncnc2N[C@@H]2C[C@H](COS(N)(=O)=O)[C@@H](O)[C@H]2O)c1 (single isomer, unassigned) [I-8b, [(1R,2R,3S,4R)-4-{[5-({4-[(1S)-1-amino-1-(3-chlorophenyl)ethyl]-2-thienyl}carbonyl)pyrimidin-4-yl]amino}-2,3-dihydroxycyclopentyl]methyl sulfamate or [(1R,2R,3S,4R)-4-{[5-({4-[(1R)-1-amino-1-(3-chlorophenyl)ethyl]-2-thienyl}carbonyl)pyrimidin-4-yl]amino}-2,3-dihydroxycyclopentyl]methyl sulfamate] | 99 | < 0.01 µM
12 | NS(=O)(=O)OC[C@H]1C[C@@H](Nc2ncncc2C(=O)c2cc([C@H](O)c3cccc(Cl)c3)c(Cl)s2)C[C@@H]1O (single isomer, unassigned) [I-9a, [(1R,2S,4R)-4-{[5-({5-chloro-4-[(R)-(3-chlorophenyl)(hydroxy)methyl]-2-thienyl}carbonyl)pyrimidin-4-yl]amino}-2-hydroxycyclopentyl]methyl sulfamate or [(1R,2S,4R)-4-{[5-({5-chloro-4-[(S)-(3-chlorophenyl)(hydroxy)methyl]-2-thienyl}carbonyl)pyrimidin-4-yl]amino}-2-hydroxycyclopentyl]methyl sulfamate] | 99 | < 0.01 µM
13 | NS(=O)(=O)OC[C@H]1C[C@@H](Nc2ncncc2C(=O)c2cc([C@H](O)c3cccc(Cl)c3)c(Cl)s2)C[C@@H]1O (single isomer, unassigned) [I-9b, [(1R,2S,4R)-4-{[5-({5-chloro-4-[(R)-(3-chlorophenyl)(hydroxy)methyl]-2-thienyl}carbonyl)pyrimidin-4-yl]amino}-2-hydroxycyclopentyl]methyl sulfamate or [(1R,2S,4R)-4-{[5-({5-chloro-4-[(S)-(3-chlorophenyl)(hydroxy)methyl]-2-thienyl}carbonyl)pyrimidin-4-yl]amino}-2-hydroxycyclopentyl]methyl sulfamate] | 97 | < 0.01 µM
14 | N[C@@H](c1cccc(Br)n1)c1cc(C(=O)c2cncnc2N[C@@H]2C[C@H](COS(N)(=O)=O)[C@@H](O)[C@H]2O)sc1Cl (single isomer, unassigned) [I-10a, [(1R,2R,3S,4R)-4-{[5-({4-[(R)-amino(6-bromopyridin-2-yl)methyl]-5-chloro-2-thienyl}carbonyl)pyrimidin-4-yl]amino}-2,3-dihydroxycyclopentyl]methyl sulfamate or [(1R,2R,3S,4R)-4-{[5-({4-[(S)-amino(6-bromopyridin-2-yl)methyl]-5-chloro-2-thienyl}carbonyl)pyrimidin-4-yl]amino}-2,3-dihydroxycyclopentyl]methyl sulfamate] | 100 | < 0.01 µM
